From patent US20160102052A1, “Use of Cysteamine in Treating Infections caused by Yeasts/Moulds” (priority 2014, published 2016)

Tested on: Exophiala dermatitidis CA01
Experiment: Broth microdilution chequerboard analysis of Lynovex (NM001) in combination with clinical antifungals
Type: cell-based
Conditions: 35° C.; for MIC50: Exophiala dermatitidis, NM001 in isolation
Protocol: The aim of the experiment was to determine the effect of Lynovex (NM001) on the antifungal drug susceptibility of Exophiala dermatitidis CA01. Microtitre plates were prepared following CLSI recommendations for broth microdilution chequerboard method. These plates contained a serial doubling dilution of Lynovex (NM001) combined with serial doubling dilutions of antifungals drugs; Fluconazole, Itraconazole, Caspofungin and Amphotericin B. […] These were incubated at 35° C. and read at 72 h, 96 h, 120 h and 144 h on the BioTek plate reader. […] Three independent E. dermatitidis CA01 cultures were grown on PDA slope for 6 days at 35° C. • 7. Cultures were removed from incubator. 2 ml sterile 0.15M NaCl added to the overnight culture and cells harvested from the surface of the agar. Cells placed in fresh bijou tube. • 8. The cultures were allowed to rest for up to 10 minutes, allowing any hyphae to settle to the bottom. The top layer of conidia was removed into fresh bijou. Hyphae were discarded. • 9. […] This is continued to F12 where 100 μl is removed and discarded. • f. This dilution series was repeated in rows G-H for the remaining 2 cultures • g. Plate read at OD530 on BioTek • h. […] This preparation step occurs in two parts. First, Lynovex (NM001) and antifungals are serially diluted, down and across microtitre plates, respectively. Equal volumes of Lynovex and antifungal are then combined in a fresh microtitre plate, prior to inoculation. […] Stock solutions of Lynovex and antifungals were prepared at 4× desired concentrations. The plate layout at the end of this protocol is the final concentration in the plate following the combination of Lynovex and antifungals and the addition of the inocula. […] All other wells contain 150 μl sterile dH2O. • 9. Serial doubling dilutions are carried out from A to B whereby 150 μl is removed from A and placed into B and mixed well. Then take 150 μl B and place in C and mix well. This is repeated down to row G where the final 150 μl is discarded. […] The same procedure is repeated for the other 4 antifungals, carrying the dilutions across the plate i.e. […] At the final dilution in column 10, the final 150 μl is discarded. […] Inoculating Plates with E. dermatitidis CA01 • 6. Add 100 μl (total volume 200 μl) of the prepared E. dermatitidis CA01 culture to the all wells on the plate except wells H12. […] H12 will contain 100 μl water and 100 μl 2×RPMI-1640 alone, constituting an uninoculated control. • 8. The plate is read in the BioTek at OD530. • 9. Plates are then placed in a plastic box containing a Petri dish of water, sealed and incubated at 35° C. The presence of the water in the dish or on the tissue provides and environment of relatively high humidity. • 10. OD530 is then read at 72 h, 96 h, 120 h and 144 h and raw data processed using Microsoft Excel. • 11. Fractional Inhibitory Concentration (FIC) Index values are generated using MIC100 for 72 h data and MIC50 for later time points using the following formula: […]

SMILES: NCCS [NM001, cysteamine]
- MIC50 (CA01, 72 h, GEOMEAN, Amphotericin B chequerboard, 72 h): 461 µg/mL
- MIC50 (CA01, 72 h, GEOMEAN, Caspofungin chequerboard, 72 h): 1250 µg/mL
- MIC50 (CA01, 72 h, GEOMEAN, Fluconazole chequerboard, 72 h): 1250 µg/mL
- MIC50 (CA01, 72 h, GEOMEAN, Itraconazole chequerboard, 72 h): 1250 µg/mL
- MIC50 (CA01, 72 h, MEAN, Amphotericin B chequerboard, 72 h): 667 µg/mL
- MIC50 (CA01, 72 h, MEAN, Caspofungin chequerboard, 72 h): 1460 µg/mL
- MIC50 (CA01, 72 h, MEAN, Fluconazole chequerboard, 72 h): 1250 µg/mL
- MIC50 (CA01, 72 h, MEAN, Itraconazole chequerboard, 72 h): 1510 µg/mL
- MIC50 (CA01, 72 h, Range, Amphotericin B chequerboard, 72 h): 125 to 1250 µg/mL
- MIC50 (CA01, 72 h, Range, Caspofungin chequerboard, 72 h): 625 to 2500 µg/mL
- MIC50 (CA01, 72 h, Range, Fluconazole chequerboard, 72 h): 1250 µg/mL
- MIC50 (CA01, 72 h, Range, Itraconazole chequerboard, 72 h): 312 to 2500 µg/mL
- MIC50 (CA01, 96 h, GEOMEAN, Amphotericin B chequerboard, 96 h): 625 µg/mL
- MIC50 (CA01, 96 h, GEOMEAN, Caspofungin chequerboard, 96 h): 1090 µg/mL
- MIC50 (CA01, 96 h, GEOMEAN, Fluconazole chequerboard, 96 h): 787 µg/mL
- MIC50 (CA01, 96 h, GEOMEAN, Itraconazole chequerboard, 96 h): 1130 µg/mL
- MIC50 (CA01, 96 h, MEAN, Amphotericin B chequerboard, 96 h): 885 µg/mL
- MIC50 (CA01, 96 h, MEAN, Caspofungin chequerboard, 96 h): 1530 µg/mL
- MIC50 (CA01, 96 h, MEAN, Fluconazole chequerboard, 96 h): 885 µg/mL
- MIC50 (CA01, 96 h, MEAN, Itraconazole chequerboard, 96 h): 1520 µg/mL
- MIC50 (CA01, 96 h, Range, Amphotericin B chequerboard, 96 h): 156 to 1250 µg/mL
- MIC50 (CA01, 96 h, Range, Caspofungin chequerboard, 96 h): 156 to 2500 µg/mL
- MIC50 (CA01, 96 h, Range, Fluconazole chequerboard, 96 h): 312 to 1250 µg/mL
- MIC50 (CA01, 96 h, Range, Itraconazole chequerboard, 96 h): 312 to 2500 µg/mL
- MIC50 (CA01, 120 h, GEOMEAN, Amphotericin B chequerboard, 120 h): 743 µg/mL
- MIC50 (CA01, 120 h, GEOMEAN, Caspofungin chequerboard, 120 h): 1440 µg/mL
- MIC50 (CA01, 120 h, GEOMEAN, Fluconazole chequerboard, 120 h): 1770 µg/mL
- MIC50 (CA01, 120 h, GEOMEAN, Itraconazole chequerboard, 120 h): 1250 µg/mL
- MIC50 (CA01, 120 h, MEAN, Amphotericin B chequerboard, 120 h): 977 µg/mL
- MIC50 (CA01, 120 h, MEAN, Caspofungin chequerboard, 120 h): 1750 µg/mL
- MIC50 (CA01, 120 h, MEAN, Fluconazole chequerboard, 120 h): 1880 µg/mL
- MIC50 (CA01, 120 h, MEAN, Itraconazole chequerboard, 120 h): 1500 µg/mL
- MIC50 (CA01, 120 h, Range, Amphotericin B chequerboard, 120 h): 156 to 1250 µg/mL
- MIC50 (CA01, 120 h, Range, Caspofungin chequerboard, 120 h): 625 to 2500 µg/mL
- MIC50 (CA01, 120 h, Range, Fluconazole chequerboard, 120 h): 1250 to 2500 µg/mL
- MIC50 (CA01, 120 h, Range, Itraconazole chequerboard, 120 h): 625 to 2500 µg/mL
- MIC50 (CA01, 144 h, GEOMEAN, Amphotericin B chequerboard, 144 h): 787 µg/mL
- MIC50 (CA01, 144 h, GEOMEAN, Caspofungin chequerboard, 144 h): 1580 µg/mL
- MIC50 (CA01, 144 h, GEOMEAN, Fluconazole chequerboard, 144 h): 1490 µg/mL
- MIC50 (CA01, 144 h, GEOMEAN, Itraconazole chequerboard, 144 h): 1770 µg/mL
- MIC50 (CA01, 144 h, MEAN, Amphotericin B chequerboard, 144 h): 1300 µg/mL
- MIC50 (CA01, 144 h, MEAN, Caspofungin chequerboard, 144 h): 1880 µg/mL
- MIC50 (CA01, 144 h, MEAN, Fluconazole chequerboard, 144 h): 1720 µg/mL
- MIC50 (CA01, 144 h, MEAN, Itraconazole chequerboard, 144 h): 2030 µg/mL
- MIC50 (CA01, 144 h, Range, Amphotericin B chequerboard, 144 h): 156 to 2500 µg/mL
- MIC50 (CA01, 144 h, Range, Caspofungin chequerboard, 144 h): 625 to 2500 µg/mL
- MIC50 (CA01, 144 h, Range, Fluconazole chequerboard, 144 h): 625 to 2500 µg/mL
- MIC50 (CA01, 144 h, Range, Itraconazole chequerboard, 144 h): 625 to 2500 µg/mL
- NM001 MIC100 in Combination (GEOMEAN, in combination with Amphotericin B, 72 h): 39 µg/mL
- NM001 MIC50 in Combination (GEOMEAN, in combination with Amphotericin B, 96 h): 55 µg/mL
- NM001 MIC50 in Combination (GEOMEAN, in combination with Amphotericin B, 120 h): 156 µg/mL
- NM001 MIC50 in Combination (GEOMEAN, in combination with Amphotericin B, 144 h): 442 µg/mL
- NM001 MIC100 in Combination (GEOMEAN, in combination with Caspofungin, 72 h): 78 µg/mL
- NM001 MIC50 in Combination (GEOMEAN, in combination with Caspofungin, 96 h): 90 µg/mL
- NM001 MIC50 in Combination (GEOMEAN, in combination with Caspofungin, 120 h): 118 µg/mL
- NM001 MIC50 in Combination (GEOMEAN, in combination with Caspofungin, 144 h): 394 µg/mL
- NM001 MIC100 in Combination (GEOMEAN, in combination with Fluconazole, 72 h): 312.5 µg/mL
- NM001 MIC50 in Combination (GEOMEAN, in combination with Fluconazole, 96 h): 139 µg/mL
- NM001 MIC50 in Combination (GEOMEAN, in combination with Fluconazole, 120 h): 263 µg/mL
- NM001 MIC50 in Combination (GEOMEAN, in combination with Fluconazole, 144 h): 263 µg/mL
- NM001 MIC100 in Combination (GEOMEAN, in combination with Itraconazole, 72 h): 179 µg/mL
- NM001 MIC50 in Combination (GEOMEAN, in combination with Itraconazole, 96 h): 78 µg/mL
- NM001 MIC50 in Combination (GEOMEAN, in combination with Itraconazole, 120 h): 136 µg/mL
- NM001 MIC50 in Combination (GEOMEAN, in combination with Itraconazole, 144 h): 197 µg/mL
- NM001 MIC100 in Combination (MEAN, in combination with Amphotericin B, 72 h): 39 µg/mL
- NM001 MIC50 in Combination (MEAN, in combination with Amphotericin B, 96 h): 59 µg/mL
- NM001 MIC50 in Combination (MEAN, in combination with Amphotericin B, 120 h): 221 µg/mL
- NM001 MIC50 in Combination (MEAN, in combination with Amphotericin B, 144 h): 469 µg/mL
- NM001 MIC100 in Combination (MEAN, in combination with Caspofungin, 72 h): 78 µg/mL
- NM001 MIC50 in Combination (MEAN, in combination with Caspofungin, 96 h): 102 µg/mL
- NM001 MIC50 in Combination (MEAN, in combination with Caspofungin, 120 h): 148 µg/mL
- NM001 MIC50 in Combination (MEAN, in combination with Caspofungin, 144 h): 417 µg/mL
- NM001 MIC100 in Combination (MEAN, in combination with Fluconazole, 72 h): 365 µg/mL
- NM001 MIC50 in Combination (MEAN, in combination with Fluconazole, 96 h): 176 µg/mL
- NM001 MIC50 in Combination (MEAN, in combination with Fluconazole, 120 h): 312.5 µg/mL
- NM001 MIC50 in Combination (MEAN, in combination with Fluconazole, 144 h): 400 µg/mL
- NM001 MIC100 in Combination (MEAN, in combination with Itraconazole, 72 h): 203 µg/mL
- NM001 MIC50 in Combination (MEAN, in combination with Itraconazole, 96 h): 89 µg/mL
- NM001 MIC50 in Combination (MEAN, in combination with Itraconazole, 120 h): 156.25 µg/mL
- NM001 MIC50 in Combination (MEAN, in combination with Itraconazole, 144 h): 208 µg/mL
- NM001 MIC100 in Combination (Range, in combination with Amphotericin B, 72 h): 39 µg/mL
- NM001 MIC50 in Combination (Range, in combination with Amphotericin B, 96 h): 39.0625 to 78.125 µg/mL
- NM001 MIC50 in Combination (Range, in combination with Amphotericin B, 120 h): 39.06 to 312.5 µg/mL
- NM001 MIC50 in Combination (Range, in combination with Amphotericin B, 144 h): 312.5 to 625 µg/mL
- NM001 MIC100 in Combination (Range, in combination with Caspofungin, 72 h): 78 µg/mL
- NM001 MIC50 in Combination (Range, in combination with Caspofungin, 96 h): 39.0625 to 156.25 µg/mL
- NM001 MIC50 in Combination (Range, in combination with Caspofungin, 120 h): 39.06 to 312.5 µg/mL
- NM001 MIC50 in Combination (Range, in combination with Caspofungin, 144 h): 312.5 to 625 µg/mL
- NM001 MIC100 in Combination (Range, in combination with Fluconazole, 72 h): 156 to 625 µg/mL
- NM001 MIC50 in Combination (Range, in combination with Fluconazole, 96 h): 39.06 to 156.25 µg/mL
- NM001 MIC50 in Combination (Range, in combination with Fluconazole, 120 h): 156.25 to 625 µg/mL
- NM001 MIC50 in Combination (Range, in combination with Fluconazole, 144 h): 39.0625 to 625 µg/mL
- NM001 MIC100 in Combination (Range, in combination with Itraconazole, 72 h): 78 to 312.5 µg/mL
- NM001 MIC50 in Combination (Range, in combination with Itraconazole, 96 h): 39.06 to 156.25 µg/mL
- NM001 MIC50 in Combination (Range, in combination with Itraconazole, 120 h): 78.13 to 312.5 µg/mL
- NM001 MIC50 in Combination (Range, in combination with Itraconazole, 144 h): 156.25 to 312.5 µg/mL
